Assay results from patent US5968526A, “T cell epitopes of the major allergens from Dermatophagoides (house dust mite)” (Immulogic Pharamaceutical Corporation, priority 1995, dated 1999).

Assays:
[1] = test system: T cell cultures reactive with Der p I from house dust mite-allergic subjects; test: secondary T cell proliferation assay, Group I (Der p I) overlapping and candidate/unique peptides; percent of T cell reactivity; type: cell-based, human; details: patient 1733; highest S.I. ≥2.0 recorded
Source text: To determine whether a peptide (candidate peptide) or a combination of candidate peptides are likely to comprise a sufficient percentage of the T cell reactivity of house dust mite protein allergens, to induce T cell nonresponsiveness in a substantial percentage of a population of individuals sensitive to house dust mite allergen, an algorithm can be used. In accordance with one such algorithm, a set of overlapping peptides is produced by systematically dividing the protein allergen(s) of interest into al least two overlapping peptide regions of desired lengths (e.g., of about 12-30 amino acid residues in length, preferably not longer than about 25 amino acid residues in length with about 5-15 amino acid residues of overlap). This division into peptide regions can be arbitrary, can be made according to an algorithm, or can be wholly or partially based on regions of house dust mite Group I and/or Group II protein allergens known to comprise at least one T cell epitope. Preferably, at least 50% of the entire house dust mite protein allergen sequence and more preferably, the entire house dust mite protein allergen sequence is divided into two or more peptides. A human T cell stimulation index is determined for each of the peptides in an in vitro T cell proliferation assay as described herein for each individual tested in a population of individuals sensitive to the protein antigen. For example both WO93/08279 and WO94/24281 disclose T cell studies with overlapping peptides derived from Der p I, Der p II, Der f I and Der f II. A candidate peptide or combination of candidate peptides is selected based, at least in part, on the mean human T cell stimulation index of the candidate peptide in the set of peptides tested and the positivity index of the candidate peptide in the set of peptides tested (see, FIGS. 3 and 4). The human T cell stimulation index for the candidate peptide(s) is summed. For each individual, the human T cell stimulation index for the candidate peptide(s) is divided by the sum of the human T cells stimulation indices of the remaining peptides in the set of peptides tested to determine a percent of T cell reactivity as shown below:
Alternatively, the presence of T cell epitopes in the candidate peptide dependent on amino acids residues in an overlapping peptide located at either the N-terminus or C-terminus of the candidate peptide in the amino acid sequence of the protein antigen, but which epitopes are not present in the candidate peptide can be considered in calculating the percent of T cell reactivity in the candidate peptide by use of the following formula: [formula]
In this formula, "NT flanking peptide" refers to a peptide which comprises amino acid residues which overlap with amino acid residues located at the N-terminus of the candidate peptide in the amino acid sequence of the protein antigen from which the peptide is derived; "CT flanking peptide" refers to a peptide which comprises amino acid residues which overlap with amino acid residues located a the C-terminus of the candidate peptide in the amino acid sequence of the protein antigen from which the peptide is derived. In this calculation stimulation indices for the candidate peptide, the N-terminal flanking peptide and the C-terminal flanking peptide are added and divided by the sum total of the stimulation indices for the entire set of overlapping peptides obtain a percent of T cell reactivity for the candidate peptide. If a combination of two or more candidate peptides is selected each of which contains amino acid residues which overlap, this calculation cannot be used to determine a percent of T cell reactivity for each candidate peptide separately. However, a total percent of T cell reactivity for the combination of candidate peptides can be obtained. In this situation, the stimulation indices for all of the candidate peptides which overlap is included in the calculation. […]

[2] = test system: PBMC from mite-allergic patient; test: primary T cell (PBMC) proliferation, mite-allergic patient, tritiated thymidine; type: cell-based, human; details: medium 1071 ± 30
Method in brief: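 Ficoll-purified PBMC (5×10^4/well, triplicate) from one mite-allergic donor cultured 7 days at 37 °C with graded concentrations of purified Der p I, Der p II or their peptides in RPMI-1640 plus 5% human AB serum. 1 μCi ^3H-thymidine added for 16 h; CPM counted, stimulation index = antigen CPM/medium-only CPM.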

[3] = test system: T cell lines primed in vitro to Der p I; test: secondary proliferation of Der p I-primed T cell lines (Examples V, VII, XI); type: cell-based, human; details: overlapping Der p I peptides; 33 positive experiments
Method in brief: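 PBMC were primed with native or recombinant Der p I (10 or 20 μg/ml) for 7 days, then expanded with IL-2 and IL-4. Resting T cells (2×10^4) were cultured 3 days with irradiated autologous EBV-B cells or PBMC and titrated protein or peptides, then pulsed 16 h with 1 μCi ³H-thymidine. S.I. was peak-response CPM over medium-only CPM, with S.I. ≥2.0 scored positive.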

[4] = test system: T cell lines primed in vitro to Der f I; test: secondary proliferation of Der f I-primed T cell lines (Examples VI, VII, XI); type: cell-based, human; details: Der f I primed; 8 positive experiments; FIG. 8
Method in brief: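 PBMC from house dust mite-allergic patients were primed in vitro with recombinant or affinity-purified Der f I at 20 μg/ml (or 10 μg/ml), then rechallenged with Der f I peptides. Antigen-presenting cells were x-irradiated autologous PBMC (3500 Rads) or EBV-transformed B cells (25,000 Rads). Read-out was T cell proliferation.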

[5] = test system: human IgE; test: direct binding ELISA of IgE to mite allergen proteins and peptides; details: data not shown
Protocol: The coating antigens were removed and the wells are blocked with 0.5% gelatin in PBS, 300 μl/well for 2 hours at room temperature. Pooled human plasma (a mix of plasma samples from 20 patients that were skin test positive for commerical mite extract) was serially diluted with PBS-Tween 20 (PBS with 0.05% nonionic detergent Tween-20 Sigma, St. Louis, Mo.) and 100 μl/well a.backslash.was added and incubated overnight at 4° C. (plasma dilutions were tested in duplicate). The second antibody (biotinylated goat anti-Human IgE, 1:1000, Kirkegaard & Perry Laboratories Inc, Gaithersburg, Md.), was added at 100 μl/well for one hour at room temperature. This solution was removed and streptavidin-HRPO, 1:10000, (Southern Biotechnology Associates, Inc., Birmingham, Ala.) was then added at 100 μl/well for one hour at room temperature (all wells are washed three times with PBS-Tween between each incubation step). TMB Membrane Peroxidase Substrate system (Kirkegaard & Perry Laboratories) was freshly miced, and added at […]. The color was allowed to develop for 2-5 minutes. The reaction was stopped by the addition of […] of 1M phosphoric acid. Plates were read on a Microplate IL310 Autoreader (Biotech Instruments, Winooski, Vt.) with a 450 nm filter. The absorbance levels of duplicate wells were averaged. The order of coating antigens listed vertically in these figure legends corresponds in orDer from left to right to the coating antigens listed for each histogram.
The antigen preparation that was used as a positive control was a mixture of the four major biochemically purified mite allergens (term PMA for Purified Mite Allergen); Der f I, Der f II, Der p I and Der p II. The stock was generated at a concentration of 100 μgs of each protein per millimeter or 400 μgs total protein/ml. This preparation was used on each coated ELISA plate.

[6] = test system: mast cells or basophils; test: histamine release; type: cell-based, human; details: data not shown
Protocol: To determine whether a peptide which binds IgE results in the release of mediators, a histamine release assay can be performed using standard reagents and protocols obtained for example, from Amac, Inc. (Westbrook, Me.). Briefly, a buffered solution of a peptide to be tested is combined with an equal volume of whole heparinized blood from an allergic subject. After mixing and incubation, the cells are pelleted and the supernatants are processed and analyzed using a radioimmunoassay to determine the amount of histamine released.

[7] = pH-solubility profile; type: physicochemical; details: at a pH in the range pH 6 to pH 8
Protocol: (§1) 50 mM sodium phosphate stock solutions:
(§2) Stock solution A: 0.66 g […] of monobasic sodium phosphate monohydrate U.S.P. and 50 mg EDTA disodium dihydrate, U.S.P. were dissolved in 100 mL of WFI. The solution was filtered through a 0.2 micron filter
(§3) Stock solution B: 0.71 g […] of dibasic sodium phosphate U.S.P. were disolved in 100 ml WFI. The solution was filtered through a 0.2 micron filter.
(§4) 2. Initial peptide dispersions
(§5) Dispersion A: 3.0 mg of each candidate peptide,DPI-21.2 (SEQ. ID. NO. 28), DFI-22.2 (SEQ. ID. NO. 93), DFI-23.31(SEQ. ID. NO. 165), DFI-26.6 (SEQ. ID. NO. 168), DPII-20.9 (SEQ. ID. NO. 169), DPII-22.14 (SEQ. ID. NO. 180) and DPII-25.15 (SEQ. ID. NO. 188), was weighed out separately and placed in separate 1.5 mL eppendoff vials with 600 μL of stock solution A. The composition was agitated for 1 seconds to mix well.
as §5, with “Dispersion B:” for “Dispersion A:”, “each peptide, DPI-21.2” for “each candidate peptide,DPI-21.2”, “solution B.” for “solution A.”, “The mixture” for “The composition”, “for 5” for “for 1”
(§6) Dispersions A and B were sonicated for 2 minutes for good homogeneity. A small volume was pipetted from each dispersion into a labeled eppendoff vial according to the following volume ratio:
(§7) The resultant solutions/suspensions were stored in the dark at about 22° C.±2 for 24 hours without agitation. The solutions were filtered and filtrates were analyzed for pH and peptide concentration.
(§8) The concentration of filtered peptide solutions was determined by HPLC analysis. In this experiment, the solubility of peptide at each pH is defined as the amount of peptide remaining in solution after filtration through a membrane filter having a 0.2 micrometer pore size. The extent of degradation of peptides was estimated by calculating the percent of total degradant peak area over the total peak area.
The pH values with respect to the solubility values was plotted and are shown in FIG. 37 for each respective peptide. As shown in the solubility curve for each peptide as represented in FIG. 37, peptides DPI-21.2 (SEQ. ID. NO. 28), DFI-22.2 (SEQ. ID. NO. 93), DFI-23.31 (SEQ. ID. NO. 165), DFI-26.6 (SEQ. ID. NO. 168), DPII-20.9 (SEQ. ID. NO. 169), DPII-22.14 (SEQ. ID. NO. 180) and DPII-25.15 (SEQ. ID. NO. 188) are each soluble at greater than 3 mg/ml at a pH in the pH range of pH 6 to pH 8.

[8] = pH-stability profile / solution stability (HPLC); type: physicochemical; details: pH 6 to pH 8
Protocol: as §1, §2, §3, §4, §5
as §5, with “Dispersion B:” for “Dispersion A:”, “each peptide, DPI-21.2” for “each candidate peptide,DPI-21.2”, “solution B.” for “solution A.”, “The mixture” for “The composition”, “for 5” for “for 1”
as §6, §7, §8
The pH-stability profiles for each peptide DPI-21.2 (SEQ. ID. NO. 28), DFI-22.2 (SEQ. ID. NO. 93), DFI-23.31(SEQ. ID. NO. 165), DFI-26.6 (SEQ. ID. NO. 168), DPII-20.9 (SEQ. ID. NO. 169), DPII-22.14 (SEQ. ID. NO. 180) and DPII-25.15 (SEQ. ID. NO. 188) in equal concentration combination at 3, 2, and 1 mg/ml per peptide and prepared in duplicate as described above with one set stored at about 5° C. for 24 hours and one set stored at about 22° C.±2 for 24 hours, were calculated and tabulated as a function of the percentage of total of degradant peak area (FIG. 38).

DP I-10: Der p I peptide (QGVDYWIVRNSWDTNWGDNGYGYF)
T cell stimulation index (S.I.) [1]: 0 | CPM ± S.D. ([2]; 10 μg/ml): 1936 ± 50 CPM | CPM ± S.D. ([2]; 30 μg/ml): 3042 ± 89 CPM | CPM ± S.D. ([2]; 100 μg/ml): 2644 ± 63 CPM | T cell reactivity [3]: significant regions of T cell reactivity

DP I-14: Der p I peptide (QSCRRPNAQRFGISNYCQI)
T cell stimulation index (S.I.) [1]: 2.3 | T cell response to Der p I peptides [4]: respond significantly

DP I-15: Der p I peptide (RFGISNYCQIYPPNANKIREAL)
T cell stimulation index (S.I.) [1]: 2.8 | T cell response to Der p I peptides [4]: respond significantly

DP II-25.15: modified Der p II peptide; unique peptide (DEETVKVMGDDGVLACAIATHAKIRDEE)
IgE reactivity, candidate peptides [5]: negative | histamine release [6]: negative | solubility [7]: greater than 3 mg/ml | stability (in words) [8]: acceptable solution stability
